System: E. coli ATCC 25922
Assay: Digital AST by LVSi single-cell division tracking, pure E. coli samples
Type: cell-based
Settings: for bacterial cell growth (normalized cumulative division events) versus control: different batches of E. coli; for average counting number of cell spots during 5-min video: 37° C., stationary phase cells
Protocol: E. coli ATCC 25922 were purchased from American Type Culture Collection (ATCC) and stored at −80° C. in 5% glycerol. Antibiotics, including ciprofloxacin and ampicillin were purchased from Sigma-Aldrich. The antibiotic powders were stored in the dark at 2 to 8° C. Frozen E. coli strains were thawed, and 50 μL of the cells were cultured in 5 mL of Luria-Bertani (LB) medium (per liter: 10 g peptone 140, 5 g yeast extract, and 5 g sodium chloride) at 37° C. and 150 rpm for 15 h. Then the overnight cultured E. coli was inoculated into LB broth directly. After dilution to appropriate cell concentrations, antibiotics were added to the E. coli suspensions.
The dual channel LVSi system depicted in FIG. 1A was used, with two 800 mW, 780 nm infrared (IR) LEDs (M780LP1, Thorlabs, Inc., USA), each with collimating and focusing lenses and a central blocking aperture to focus a ring-shaped illumination through the sample or the reference cuvettes. Wide-view and deep field depth scattering images were recorded by two CMOS cameras (BFS-U3-16S2M-CS, Point Grey Research Inc., Canada) at 10 fps through two 2×variable zoom lens (NAVITAR 12×, Navitar, USA), for the sample and reference cuvettes, respectively. The image volume was determined by the viewing size and focal depth of the optics. For these experiments, the viewing area of 2.5 mm×1.9 mm×1.0 mm was equivalent to 4.8 μL at 2.0× magnifying power. The imaging system was enclosed in a thermally isolated housing with a controlled temperature (37° C.).
Individual cells recorded by LVSi are resolved as bright spots. Before division tracking, each spot was detected with a Laplacian of Gaussian (LoG) filter with defined radius and threshold. Then, the spots from adjacent time frames were connected with a Karman filter for directional linking. So each bright spot became a single-cell trajectory. To track the division events, the newly appeared cell trajectories (those from the image edges excluded) were first filtered out as the child trajectory candidates, and for each child trajectory candidate, the nearby old trajectories (appeared before the child trajectory candidate) were checked. If there was a close-by old trajectory split at the start time of the child trajectory candidate, a potential division event was tracked. To filter out the merge/crossing induced splitting, the spots merging events were also checked and were filtered out from the potential division events. Finally, an intensity filter was used to evaluate the remaining division events, ensuring the parent cell intensity is about the summation of the two divided child ones, and the two child ones are similar in size.
To validate that the tracked division events were due to real cell growth, rather than an artifact of the particle merging or crossing, a division over-counting calibration test was designed. To rule out the real division events, the E. coli cells were heated at ˜65° C. for 15 min. Then, each 5-min video of the heated E. coli cells with different concentrations (2.0×10^4˜2.0×10^5 CFU/mL, corresponding to 100-1000 spots in image view) were analyzed for single-cell division tracking. Each concentration test was repeated three times. Then, the division over-counting calibration curve was extracted from the tracking results. The division over-counting is less an issue when the cell number is below 500, corresponding to the bacterial concentration of about 1.0×10^5 CFU/mL. When the cell number is above 500, some miss-counting of division events occurred. To rule out the cell density induced division over-counting, the final division events in all clinical samples were calibrated by subtracting the cell density associated over counted division events.
The statistical error of the division tracking was estimated by the mentioned division over-counting calibration. […]

Row | SMILES | bacterial cell growth (normalized cumulative division events) versus control (16 μg/mL ampicillin, 60 min (FIG. 5C, 5D)) | cumulative division events growth curve compared with control (2 μg/mL ciprofloxacin, 60 min (FIG. 4F)) | bacterial cell growth (normalized cumulative division events) versus control (2 μg/mL ciprofloxacin, 60 min (FIG. 5A, 5B)) | average counting number of cell spots during 5-min video (2 μg/mL ciprofloxacin, snapshot at 5 min) | average counting number of cell spots during 5-min video (2 μg/mL ciprofloxacin, snapshot at 30 min) | average counting number of cell spots during 5-min video (2 μg/mL ciprofloxacin, snapshot at 60 min)
1 | CC1(C)S[C@@H]2[C@H](NC(=O)[C@H](N)c3ccccc3)C(=O)N2[C@H]1C(=O)O [ampicillin] | clear inhibition in bacterial cell growth | – | – | – | – | –
2 | O=C(O)c1cn(C2CC2)c2cc(N3CCNCC3)c(F)cc2c1=O [ciprofloxacin] | – | no obvious increases in the growth curve | clear inhibition in bacterial cell growth | 118±8 | 114±5 | 106±4

From patent publication US20230230249A1, “DIGITAL ANTIMICROBIAL SUSCEPTIBILITY TESTING” (ARIZONA BOARD OF REGENTS ON BEHALF OF ARIZONA STATE …, priority 2020, published 2023)
